Like-named read-outs stand apart in the source and are kept apart here.
Tests used:
[1] = system: cisplatin-resistant (KBCP20) cancer cells; assay: Cytotoxicity in cisplatin-resistant KBCP20 cancer cells; assay type: cell-based; conditions: for IC50: cisplatin-resistant cells, read-out: IC50 KBCBP20; for RF (resistance factor): ratio of IC50 values in cisplatin-resistant versus wild-type cell lines
Experimental: (§1) The Re complex containing the 2,9-dimethyl phen ligand was also tested in wild-type (KB) and cisplatin-resistant (KBCP20) cancer cells.

[2] = system: wild-type (KB) cancer cells; assay: Cytotoxicity in wild-type KB cancer cells; assay type: cell-based
Experimental: as §1

[3] = system: human cervical cancer cells (HeLa); assay: In vitro anticancer activity (MTT) of [Re(CO)3(N—N)(H2O)][OTf] complexes in HeLa cells; assay type: cell-based; conditions: concentration at which cell proliferation is inhibited by 50%, read-out: IC50 of Re—(H2O) Complex
Experimental: (§2) HeLa (cervical cancer) cell line was cultured using Dulbecco's Modified Eagle's Medium (DMEM) supplemented with 10% fetal bovine serum (FBS). A2780 (ovarian cancer) and A2780CP70 (cisplatin-resistant ovarian cancer) cell lines were cultured as monolayers with Roswell Park Memorial Institute (RPMI)-1640 culture media supplemented with 10% fetal bovine serum. All cell lines were grown in a humidified incubator at 37° C. with an atmosphere of 5% CO2. Cells were passed at 80-90% confluence, using trypsin/EDTA. Cells were tested monthly for mycoplasma contamination with the PlasmoTest™ mycoplasma detection kit from InvivoGen.
(§3) All compounds were dissolved in phosphate-buffered saline (PBS, pH 7.4) to prepare a 1-2 mM stock solution. For single dose studies, only HeLa cells were used. For both the single dose and full dose response, all cells were grown to 80-90% confluence, detached with trypsin/EDTA, seeded in 96-well plates at 2000 cells/well for HeLa cells and 4000 cells/well for A2780 and A2780CP70 cells in 100 μL of growth media, and incubated for 24 hours. The medium was removed and replaced with fresh medium (200 μL) containing a single concentration of a rhenium(I) complex or media. The cells were then incubated for 4 hours, and then the cells were dosed with 365 nm for 1 hour (one plate under the same dosing conditions was kept outside the incubator in the dark as a control). After exposure to light, the plates incubated for an additional 44 hours, the medium was removed from the wells, and (3(4,5-dimethylthiazol-2-yl)-2,5-tetrazolium bromide (MTT) in RPMI (200 μL, 1 mg/mL) was added. After 4 hours, the MTT/RPMI solution was removed, and the formazan crystals were dissolved in 200 μL of an 8:1 mixture of DMSO and pH 10 glycine buffer. The absorbance at 570 nm in each well was measured using a BioTek Synergy™ HT plate reader. Cell viability was determined by normalizing the absorbance of the treated wells to untreated wells. All compounds that had less than 50% cell viability were analyzed using a full dose response. The % viability data is an average of three independent experiments with six replicates per concentration. The same procedure was followed as above for the full dose response but instead, after 24 hours, varying concentrations of the desired compounds were added. Cell viability was again determined by normalizing the absorbance of the treated wells to untreated wells The concentration of the compound versus % viability was plotted to produce dose-response curves, which were analyzed using a logistic sigmoid function fit with MagicPlot Pro™ software. The reported IC50 values are the average of three independent experiments with six replicates per concentration level.
The in vitro anticancer activities of these complexes were tested in human cervical cancer cells (HeLa), and the results are provided below in Table 1. […] The Hill-Slope is a quantitative measure of the steepness of the dose-response curve.

[4] = system: HeLa (cervical cancer) cell line; assay: MTT cell viability of phosphino-Re(I) complexes in HeLa cells, dark or 365 nm light; assay type: cell-based, human; conditions: for Single Dose Cell Viability (%) Light / Single Dose Cell Viability (%) Dark: HeLa cells, single concentration; for Single Dose Cell Viability (%) Dark: kept in the dark
Experimental: as §2, §3

[5] = system: A2780 (ovarian cancer) cell line; assay: MTT cell viability of phosphino-Re(I) complexes in A2780 cells, dark or 365 nm light; assay type: cell-based
Experimental: as §2, §3

[6] = system: A2780CP70 (cisplatin-resistant ovarian cancer) cell line; assay: MTT cell viability of phosphino-Re(I) complexes in A2780CP70 cells, dark or 365 nm light; assay type: cell-based
Experimental: as §2, §3

[7] = Table 4, HeLa, 365 nm for 1 hour, read-out: IC50 Value (μM) HeLa (light)
[8] = Table 4, HeLa, dark, read-out: IC50 Value (μM) HeLa (dark)
[9] = Table 3, full dose response, 365 nm for 1 hour, read-out: IC50 Value (μM) Light
[10] = Table 3, full dose response, dark, read-out: IC50 Value (μM) Dark
[11] = A2780, 365 nm for 1 hour, read-out: IC50 Value (μM) A2780 (light)
[12] = A2780, dark, read-out: IC50 Value (μM) A2780 (dark)
[13] = A2780CP70, 365 nm for 1 hour, read-out: IC50 Value (μM) A2780CP70 (light)
[14] = A2780CP70, dark, read-out: IC50 Value (μM) A2780CP70 (dark)

Row | Compound | IC50 [3] | IC50 [4, 9] | IC50 [4, 10] | Single Dose Cell Viability (%) Light ([4]; 365 nm for 1 hour) | Single Dose Cell Viability (%) Dark [4] | also measured
1 | Cc1ccc2ccc3ccc(C)nc3c2n1.O.O=S(=O)([O-])C(F)(F)F.[C-]#[O+].[C-]#[O+].[C-]#[O+].[Re+] [2,9-dimethyl phen, [Re(CO)3(N—N)(H2O)][OTf]] | 0.97 ± 0.21 µM | – | – | – | – | IC50 [1]: 2 µM; RF (resistance factor) [1]: 5; IC50 [2]: 0.4 µM
2 | N.N.[Cl][Pt][Cl] [cisplatin, reference compound] | 3 ± 1.2 µM | – | – | – | – | IC50 [1]: 50 µM; RF (resistance factor) [1]: 62.5; IC50 [2]: 0.8 µM
3 | Re(CO)2(phen)(DAPTA)(H2O) [DAPTA-phen dicarb (3b)] | – | – | – | – | – | IC50 [4, 7]: > 200 µM; IC50 [4, 8]: > 200 µM
4 | Re(CO)3(bpy)(DAPTA) [DAPTA-bpy (9)] | – | 14.9 ± 3.2 µM | > 200 µM | – | – | –
5 | Re(CO)3(bpy)(PTA) [PTA-bpy (7)] | – | – | – | 90.5 ± 4.1% | 97.9 ± 3.7% | –
6 | Re(CO)3(bpy)(THP) [THP-bpy (8)] | – | – | – | 73.1 ± 6.4% | 98.9 ± 1.6% | –
7 | Re(CO)3(dmbpy)(DAPTA) [DAPTA-dmbpy (12)] | – | 60.3 ± 18.2 µM | > 200 µM | – | – | –
8 | Re(CO)3(dmbpy)(PTA) [PTA-dmbpy (10)] | – | – | – | 82.5 ± 9.7% | 94.4 ± 4.9% | –
9 | Re(CO)3(dmbpy)(THP) [THP-dmbpy (11)] | – | – | – | 30.7 ± 14.6% | 93.3 ± 6.0% | –
10 | Re(CO)3(dmobpy)(DAPTA) [DAPTA-dmobpy (15)] | – | 26.4 ± 9.2 µM | > 200 µM | – | – | –
11 | Re(CO)3(dmobpy)(PTA) [PTA-dmobpy (13)] | – | – | – | 96.0 ± 6.8% | 98.2 ± 3.2% | –
12 | Re(CO)3(dmobpy)(THP) [THP-dmobpy (14)] | – | 68 ± 4.3 µM | 72.6 µM | 12.7 ± 5.8% | 57.5 ± 11.0% | –
13 | Re(CO)3(dmphen)(DAPTA) [DAPTA-dmphen (6)] | – | 19.2 ± 2.9 µM | > 200 µM | – | – | –
14 | Re(CO)3(dmphen)(PTA) [PTA-dmphen (4)] | – | – | – | 87.0 ± 8.0% | 90.0 ± 8.8% | –
15 | Re(CO)3(dmphen)(THP) [THP-dmphen (5)] | – | 9.6 ± 4.2 µM | > 200 µM | 1.3 ± 1.1% | 61.8 ± 6.2% | –
16 | Re(CO)3(phen)(DAPTA) [DAPTA-phen (3)] | – | 5.9 ± 1.4 µM | > 200 µM | – | – | IC50 ([4]; HeLa, 365 nm for 1 hour, w/ oxyhemoglobin, read-out: IC50 Value (μM) HeLa (light)): > 200 µM; IC50 ([4]; HeLa, dark, w/ oxyhemoglobin, read-out: IC50 Value (μM) HeLa (dark)): > 200 µM; IC50 [4, 7]: 5.9 ± 1.4 µM; IC50 [4, 8]: > 200 µM; IC50 [5, 11]: 2.2 ± 1.1 µM; IC50 [5, 12]: > 200 µM; IC50 [6, 13]: 3.2 ± 0.7 µM; IC50 [6, 14]: > 200 µM
17 | Re(CO)3(phen)(PTA) [PTA-phen (1)] | – | > 200 µM | > 200 µM | 99.6 ± 0.7% | 99.4 ± 1.0% | IC50 [4, 7]: > 200 µM; IC50 [4, 8]: > 200 µM; IC50 [5, 11]: 53.1 ± 2.6 µM; IC50 [5, 12]: > 200 µM; IC50 [6, 13]: > 200 µM; IC50 [6, 14]: > 200 µM
18 | Re(CO)3(phen)(THP) [THP-phen (2)] | – | 26.4 ± 9.2 µM | > 200 µM | 2.5 ± 1.8% | 91.8 ± 8.7% | IC50 [4, 7]: 26.4 ± 9.2 µM; IC50 [4, 8]: > 200 µM; IC50 [5, 11]: 4.6 ± 1.4 µM; IC50 [5, 12]: > 200 µM; IC50 [6, 13]: 29.9 ± 7.7 µM; IC50 [6, 14]: > 200 µM
19 | [Re(CO)3(N—N)(H2O)][OTf] [4,4′-dimethoxy bpy] | 8.8 ± 2.4 µM | – | – | – | – | –
20 | [Re(CO)3(N—N)(H2O)][OTf] [4,4′-dimethyl bpy] | 5.8 ± 3.4 µM | – | – | – | – | –
21 | [Re(CO)3(N—N)(H2O)][OTf] [4,4′dimethylester bpy] | 210 ± 30 µM | – | – | – | – | –
22 | [Re(CO)3(N—N)(H2O)][OTf] [4,7-diphenyl phen] | 15 ± 7 µM | – | – | – | – | –
23 | [Re(CO)3(N—N)(H2O)][OTf] [bpy] | 15 ± 5 µM | – | – | – | – | –
24 | [Re(CO)3(N—N)(H2O)][OTf] [phen] | 9.7 ± 5.8 µM | – | – | – | – | –

Source: patent US10973849B2, “Rhenium complexes and methods of use for treating cancer” (CORNELL UNIVERSITY, priority 2016, dated 2021)
